Test results taken from ChEMBL document CHEMBL1201862, “PubChem BioAssay data set” (2004).
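Interpolation was linear, between the two tested concentrations surrounding the appropriate level; five concentrations were tested over 48 hours in 96-well plates. Abbreviation: GI50, concentration required for 50% inhibition of growth.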 Calls of active or inactive are those of the source. Rule as the data show it: active = GI50 up to about 1.1 µM and inactive = higher.

Columns and labels:
Experiment in all cases: inhibition of tumour cell growth, NCI panel, 48 h
[1] = test system: T47D
[2] = test system: HL-60
[3] = test system: Hs-578T
[4] = test system: OVCAR-5
[5] = test system: SK-OV-3
[6] = test system: KM12
[7] = test system: Malme-3M
[8] = test system: DU-145
[9] = test system: EKVX
[10] = test system: NCI/ADR-RES
[11] = test system: SN12C
[12] = test system: CCRF-CEM
[13] = test system: A549
[14] = test system: HCT-116
[15] = test system: SNB-75
[16] = test system: MDA-MB-435
[17] = test system: A498
[18] = test system: OVCAR-8
[19] = test system: ACHN
[20] = test system: IGROV-1
[21] = test system: U-251
[22] = test system: HOP-92
[23] = test system: M14
[24] = test system: SK-MEL-28
[25] = test system: TK-10
[26] = test system: NCI-H226
[27] = test system: UACC-257
[28] = test system: HCT-15
[29] = test system: HCC 2998
[30] = test system: SNB-19
[31] = test system: SF-295
[32] = test system: K562
[33] = test system: PC-3
[34] = test system: RXF 393
[35] = test system: UACC-62
[36] = test system: MCF7
[37] = test system: MOLT-4
[38] = test system: HOP-62
[39] = test system: SW-620
[40] = test system: SF-268
[41] = test system: COLO 205
[42] = test system: RPMI-8226
[43] = test system: MDA-N
[44] = test system: SF-539
[45] = test system: NCI-H23
[46] = test system: UO-31
[47] = test system: HT-29
[48] = test system: NCI-H522
[49] = test system: NCI-H460
[50] = test system: LOX IMVI
[51] = test system: CAKI-1
[52] = test system: BT-549
[53] = test system: 786-0
[54] = test system: SK-MEL-5
[55] = test system: MDA-MB-231
[56] = test system: OVCAR-3
[57] = test system: OVCAR-4
[58] = test system: SR
[59] = test system: SK-MEL-2

CC(C)[C@@H]1ON1C(C)c1ccccc1 (stereo partly specified)
GI50 [1]: > 100 µM (inactive) | GI50 [2]: 94.8 µM (inactive) | GI50 [3]: > 100 µM (inactive) | GI50 [4]: > 100 µM (inactive) | GI50 [5]: > 100 µM (inactive) | GI50 [6]: > 100 µM (inactive) | GI50 [7]: > 100 µM (inactive) | GI50 [8]: > 100 µM (inactive) | GI50 [9]: > 100 µM (inactive) | GI50 [10]: > 100 µM (inactive) | GI50 [11]: > 100 µM (inactive) | GI50 [12]: > 100 µM (inactive) | GI50 [13]: > 100 µM (inactive) | GI50 [14]: > 100 µM (inactive) | GI50 [15]: > 100 µM (inactive) | GI50 [16]: > 100 µM (inactive) | GI50 [17]: > 100 µM (inactive) | GI50 [18]: > 100 µM (inactive) | GI50 [19]: > 100 µM (inactive) | GI50 [20]: 70.6 µM (inactive) | GI50 [21]: > 100 µM (inactive) | GI50 [22]: > 100 µM (inactive) | GI50 [23]: > 100 µM (inactive) | GI50 [24]: > 100 µM (inactive) | GI50 [25]: > 100 µM (inactive) | GI50 [26]: > 100 µM (inactive) | GI50 [27]: > 100 µM (inactive) | GI50 [28]: 79.6 µM | GI50 [29]: > 100 µM (inactive) | GI50 [30]: > 100 µM (inactive) | GI50 [31]: > 100 µM (inactive) | GI50 [32]: > 100 µM (inactive) | GI50 [33]: > 100 µM (inactive) | GI50 [34]: > 100 µM (inactive) | GI50 [35]: > 100 µM (inactive) | GI50 [36]: 13.7 µM (inactive) | GI50 [37]: > 100 µM (inactive) | GI50 [38]: > 100 µM (inactive) | GI50 [39]: > 100 µM (inactive) | GI50 [40]: > 100 µM (inactive) | GI50 [41]: > 100 µM (inactive) | GI50 [42]: > 100 µM (inactive) | GI50 [43]: > 100 µM (inactive) | GI50 [44]: > 100 µM (inactive) | GI50 [45]: > 100 µM (inactive) | GI50 [46]: > 100 µM (inactive) | GI50 [47]: > 100 µM (inactive) | GI50 [48]: > 100 µM (inactive) | GI50 [49]: > 100 µM (inactive) | GI50 [50]: > 100 µM (inactive) | GI50 [51]: 17.1 µM (inactive) | GI50 [52]: > 100 µM (inactive) | GI50 [53]: > 100 µM (inactive) | GI50 [54]: > 100 µM (inactive) | GI50 [55]: > 100 µM (inactive) | GI50 [56]: > 100 µM (inactive) | GI50 [57]: > 100 µM (inactive) | GI50 [58]: > 100 µM (inactive)

CC(C)C1=C2CCC3(C)C(CCC4C5C6OCC5(CCC6(C)C)CCC43C)C2(C)CC1 (stereo unspecified)
GI50 [1]: 27 µM (inactive) | GI50 [2]: 8.81 µM (inactive) | GI50 [3]: 22.8 µM (inactive) | GI50 [4]: 33 µM (inactive) | GI50 [59]: 29.6 µM (inactive) | GI50 [5]: 58.1 µM (inactive) | GI50 [6]: 16.9 µM (inactive) | GI50 [7]: 20.8 µM (inactive) | GI50 [8]: 20.2 µM (inactive) | GI50 [9]: 19.1 µM (inactive) | GI50 [10]: 18.9 µM (inactive) | GI50 [11]: 15 µM (inactive) | GI50 [12]: 12.3 µM (inactive) | GI50 [13]: 17.3 µM (inactive) | GI50 [14]: 18.8 µM (inactive) | GI50 [16]: 17.4 µM (inactive) | GI50 [17]: 20.4 µM (inactive) | GI50 [18]: 17.7 µM (inactive) | GI50 [19]: 20 µM (inactive) | GI50 [20]: 13.1 µM (inactive) | GI50 [21]: 19.1 µM (inactive) | GI50 [22]: 18.6 µM (inactive) | GI50 [23]: 17.4 µM (inactive) | GI50 [24]: 17.8 µM (inactive) | GI50 [25]: 16.7 µM (inactive) | GI50 [26]: 33.7 µM (inactive) | GI50 [27]: 18.1 µM (inactive) | GI50 [28]: 19.1 µM | GI50 [29]: 18.8 µM (inactive) | GI50 [30]: 29.1 µM (inactive) | GI50 [31]: 19.7 µM (inactive) | GI50 [33]: > 10 µM (inactive) | GI50 [34]: 20.6 µM (inactive) | GI50 [35]: 17.7 µM (inactive) | GI50 [36]: 23.4 µM (inactive) | GI50 [37]: 16.3 µM (inactive) | GI50 [38]: 18.1 µM (inactive) | GI50 [39]: 22.5 µM (inactive) | GI50 [40]: 28.8 µM (inactive) | GI50 [41]: 16.7 µM (inactive) | GI50 [42]: 13.6 µM (inactive) | GI50 [43]: 13.7 µM (inactive) | GI50 [44]: 16.9 µM (inactive) | GI50 [45]: 21.3 µM (inactive) | GI50 [46]: 18.1 µM (inactive) | GI50 [47]: 17.7 µM (inactive) | GI50 [48]: 18.8 µM (inactive) | GI50 [49]: 14 µM (inactive) | GI50 [50]: 14.4 µM (inactive) | GI50 [51]: 20 µM (inactive) | GI50 [52]: 22.4 µM (inactive) | GI50 [53]: 17.7 µM (inactive) | GI50 [54]: 21.8 µM (inactive) | GI50 [55]: 20 µM (inactive) | GI50 [56]: 21.3 µM (inactive) | GI50 [57]: 25.3 µM (inactive) | GI50 [58]: 11.3 µM (inactive)

O=c1[nH]cc(/N=C/c2cc(Cl)cc(Cl)c2O)c(=O)[nH]1
GI50 [1]: 21.7 µM (inactive) | GI50 [2]: 13.6 µM (inactive) | GI50 [3]: 21.4 µM (inactive) | GI50 [4]: 88.1 µM (inactive) | GI50 [59]: 19.3 µM (inactive) | GI50 [5]: 24.7 µM (inactive) | GI50 [6]: 24.2 µM (inactive) | GI50 [7]: 20.8 µM (inactive) | GI50 [8]: 23 µM (inactive) | GI50 [9]: 30.7 µM (inactive) | GI50 [10]: 21.8 µM (inactive) | GI50 [11]: 35.2 µM (inactive) | GI50 [12]: 20 µM (inactive) | GI50 [13]: > 100 µM (inactive) | GI50 [14]: 20.6 µM (inactive) | GI50 [16]: 23.5 µM (inactive) | GI50 [17]: > 100 µM (inactive) | GI50 [18]: 43.1 µM (inactive) | GI50 [19]: 36.3 µM (inactive) | GI50 [20]: 17 µM (inactive) | GI50 [21]: 32.7 µM (inactive) | GI50 [22]: 27.4 µM (inactive) | GI50 [23]: 21 µM (inactive) | GI50 [24]: 22.9 µM (inactive) | GI50 [25]: > 100 µM (inactive) | GI50 [26]: 23.4 µM (inactive) | GI50 [27]: 27.7 µM (inactive) | GI50 [28]: 36.4 µM | GI50 [29]: 33.3 µM (inactive) | GI50 [30]: 32.8 µM (inactive) | GI50 [31]: 47.3 µM (inactive) | GI50 [32]: 27.8 µM (inactive) | GI50 [33]: 27.8 µM (inactive) | GI50 [34]: 26.2 µM (inactive) | GI50 [35]: 26.5 µM (inactive) | GI50 [36]: 25.8 µM (inactive) | GI50 [37]: 21.9 µM (inactive) | GI50 [38]: 26.1 µM (inactive) | GI50 [40]: 14.2 µM (inactive) | GI50 [41]: 24.8 µM (inactive) | GI50 [42]: 22.1 µM (inactive) | GI50 [43]: 29.2 µM (inactive) | GI50 [44]: 24.1 µM (inactive) | GI50 [45]: 24.6 µM (inactive) | GI50 [46]: 29.5 µM (inactive) | GI50 [47]: 26.5 µM (inactive) | GI50 [48]: 21.5 µM (inactive) | GI50 [49]: 39.9 µM (inactive) | GI50 [51]: 24.6 µM (inactive) | GI50 [52]: 45.1 µM (inactive) | GI50 [53]: 20.7 µM (inactive) | GI50 [54]: 19.1 µM (inactive) | GI50 [55]: 48.3 µM (inactive) | GI50 [56]: 17.7 µM (inactive) | GI50 [57]: 21.3 µM (inactive) | GI50 [58]: 14.3 µM (inactive)
